Laboratory results reported in article PMC8922279, “Identification of β-Lactams Active against Mycobacterium tuberculosis by a Consortium of Pharmaceutical Companies and Academic Institutions” (ACS Infectious Diseases, 2022).
Where two headings read alike, the source gives them in different places.

Experiments:
HepG2 cells = assay: Cytotoxicity against HepG2 cells (CellTiter-Glo); format: cell-based, human; conditions: Table S4
Procedure: Compounds were tested for cytotoxicity against HepG2 cells as previously described.[48],[69],[70] Briefly, cells were exposed to compounds for 48–72 h, and viability was measured using CellTiter-Glo (Promega).

physchem [1] = conditions: simulated gi fluid, pH 1.2
Mtb H37Rv [2] = assay: MIC90 against replicating (R) Mtb H37Rv, with or without clavulanate; format: cell-based, Mycobacterium tuberculosis; conditions: Table S4; for Mtb H37Rv R + CLAV (MIC90): clavulanate 4 μg/mL; for Mtb H37Rv R (MIC90): no clavulanate
in vitro [3] = conditions: cynomolgus monkey, plasma, pH 7.4
S. aureus = assay: Microbial spectrum, S. aureus; format: cell-based, Staphylococcus aureus; conditions: clavulanate 4 μg/mL; Table S4
in vitro [4] = conditions: beagle, dog, plasma
Mtb H37Rv [5] = assay: MIC90 against nonreplicating (NR, 4-stress) Mtb H37Rv, with or without clavulanate; format: cell-based, Mycobacterium tuberculosis; conditions: 4-stress nonreplicating, Table S4; for Mtb H37Rv NR + CLAV (MIC90): clavulanate 4 μg/mL; for Mtb H37Rv NR (MIC90): no clavulanate
in vitro [6] = conditions: human, plasma, Plasma stability % Remaining
[7] = female, 129sv DHP-1 knockout, mouse, in vivo
in vitro [8] = conditions: SD, rat, plasma, Plasma stability % Remaining
physchem [9] = conditions: simulated gi fluid, pH 6.5, FaSSIF Stability, % remaining
in vitro [10] = conditions: monkey, plasma
in vivo [11] = conditions: female, CD-1, mouse
in vitro [12] = conditions: human, plasma, pH 7.4, % bound to plasma
P. aeruginosa = assay: Microbial spectrum, P. aeruginosa; format: cell-based, Pseudomonas aeruginosa; conditions: clavulanate 4 μg/mL; Table S4
in vivo [13] = conditions: DHP-1 knockout, mouse, sc, 300 mg/kg
in vitro [14] = conditions: human; for Papp A→B at 120 min, 3 μM / Papp B→A at 120 min, 3 μM: Caco-2, pH 7.4
in vitro [15] = conditions: male, CD-1, mouse, plasma, Plasma stability % Remaining
in vivo [16] = conditions: female, 129sv DHP-1 knockout, mouse, sc, 50 mg/kg
in vitro [17] = conditions: beagle, dog, plasma, pH 7.4
C. albicans = assay: Microbial spectrum, C. albicans; format: cell-based, Candida albicans; conditions: no clavulanate; Table S4
in vitro [18] = conditions: CD-1, mouse, plasma, pH 7.4, % bound to plasma
wild-type Mtb H37Rv = format: in vivo, 129sv DHP-1 knockout mice; conditions: for Log10 CFU per mouse (lungs), Mean: 50 mg/kg sc bid + clavulanate 100 mg/kg po bid, days 9-15, lungs day 16, untreated day 16 mean 9.1
[19] = 300 mg/kg sc, uninfected DHP-1 mice
in vitro [20] = conditions: SD, rat, plasma, pH 7.4, % bound to plasma
E. coli = assay: Microbial spectrum, E. coli; format: cell-based, Escherichia coli; conditions: clavulanate 4 μg/mL; Table S4
[21] = Caco-2, pH 7.4, Caco-2 Mean Recovery % A to B
[22] = Caco-2, pH 7.4, Caco-2 Mean Recovery % B to A

Structure (SMILES): CN(C)C(=S)SCC1=C(C(=O)O)N2C(=O)[C@@H](NC(=O)Cc3cccs3)[C@H]2SC1 [TBBL-0000009]
- HepG2 LD50 (HepG2 cells): 6.6 µM
- remaining at 1 h, 10 μM (physchem [1]): 31.7%
- remaining at 24 h, 10 μM (physchem [1]): 9.96%
- Mtb H37Rv R + CLAV (MIC90) (Mtb H37Rv [2]): 4 µM
- Mtb H37Rv R (MIC90) (Mtb H37Rv [2]): 8 µM
- fraction unbound at 4 h, 2 μM (in vitro [3]): 0.047
- S.aureus R + CLAV (MIC90) (S. aureus): 1 µM
- remaining at 2 h, 2 μM (in vitro [4]): 104%
- Mtb H37Rv NR + CLAV (MIC90) (Mtb H37Rv [5]): > 100 µM
- Mtb H37Rv NR (MIC90) (Mtb H37Rv [5]): > 100 µM
- remaining at 2 h, 2 μM (in vitro [6]): 97.9%
- Tlast [7]: 6.0 h
- remaining at 2 h, 2 μM (in vitro [8]): 95.8%
- remaining at 6 h, 10 μM (physchem [9]; 6h): 85.3%
- remaining at 24 h, 10 μM (physchem [9]): 90.9%
- remaining at 2 h, 2 μM (in vitro [10]): 133%
- AUC(0-t) (in vivo [11]; iv, 5 mg/kg): 20300 ng·h/mL
- Vd (in vivo [11]; iv, 5 mg/kg): 0.18 L/kg
- clearance (in vivo [11]; iv, 5 mg/kg): 4.25 mL/min/kg
- half-life (in vivo [11]; iv, 5 mg/kg): 30 min
- k el (in vivo [11]; iv, 5 mg/kg): 0.000389 s⁻¹
- AUC(0-t) (in vivo [11]; po, 25 mg/kg): 1360 ng·h/mL
- bioavailability (in vivo [11]; po, 25 mg/kg): 1.33%
- fraction unbound at 4 h, 2 μM (in vitro [12]): 0.034
- P.aeruginosa R + CLAV (MIC90) (P. aeruginosa): > 100 µM
- AUC(0-t) (in vivo [13]): 8810 ± 675 ng·h/mL
- Cmax (in vivo [13]): 2650 ± 266 ng/mL
- Tmax (in vivo [13]): 120 to 240 min
- Papp A→B at 120 min, 3 μM (in vitro [14]): < 0.5 ×10⁻⁶ cm/s
- Papp B→A at 120 min, 3 μM (in vitro [14]): < 0.43 ×10⁻⁶ cm/s
- recovery at 120 min, 3 μM (in vitro [14]; [21]): < 98.3%
- recovery at 120 min, 3 μM (in vitro [14]; [22]): < 103%
- remaining at 2 h, 2 μM (in vitro [15]): 93%
- Caco-2 Rank Papp (Caco-2 cells): Moderate
- AUC(0-t) (in vivo [16]): 975 ng·h/mL
- Cmax (in vivo [16]): 380 ng/mL
- Tmax (in vivo [16]): 30 min
- fraction unbound at 4 h, 2 μM (in vitro [17]): 0.084
- C.albicans R (MIC90) (C. albicans): > 100 µM
- fraction unbound at 4 h, 2 μM (in vitro [18]): 0.095
- Log10 CFU per mouse (lungs), Mean (wild-type Mtb H37Rv): 8.7 Log10 CFU
- reduction of lung CFU compared to untreated control mice (wild-type Mtb H37Rv; mouse, in vivo): ~0.4 log10
- Tlast [19]: 4.0 h
- fraction unbound at 4 h, 2 μM (in vitro [20]): 0.022
- E.coli R + CLAV (MIC90) (E. coli): > 100 µM

Structure (SMILES): O=C(Cc1cccs1)N[C@@H]1C(=O)N2C(C(=O)O)=C(CSc3cccc[n+]3[O-])CS[C@H]12 [TBBL-0000001]
- HepG2 LD50 (HepG2 cells): 67.5 µM
- remaining at 1 h, 10 μM (physchem [1]): 102%
- remaining at 24 h, 10 μM (physchem [1]): 116%
- Mtb H37Rv R + CLAV (MIC90) (Mtb H37Rv [2]): 1.7 µM
- Mtb H37Rv R (MIC90) (Mtb H37Rv [2]): 3 µM
- fraction unbound at 4 h, 2 μM (in vitro [3]): 0.166
- S.aureus R + CLAV (MIC90) (S. aureus): 0.6 µM
- remaining at 2 h, 2 μM (in vitro [4]): 54.7%
- Mtb H37Rv NR + CLAV (MIC90) (Mtb H37Rv [5]): 2.2 µM
- Mtb H37Rv NR (MIC90) (Mtb H37Rv [5]): 1.8 µM
- remaining at 2 h, 2 μM (in vitro [6]): 77.3%
- Tlast [7]: 3.0 h
- remaining at 2 h, 2 μM (in vitro [8]): 80.6%
- remaining at 24 h, 10 μM (physchem [9]): 114%
- remaining at 2 h, 2 μM (in vitro [10]): 117%
- AUC(0-t) (in vivo [11]; iv, 5 mg/kg): 5590 ng·h/mL
- Vd (in vivo [11]; iv, 5 mg/kg): 0.32 L/kg
- clearance (in vivo [11]; iv, 5 mg/kg): 7.4 mL/min/kg
- half-life (in vivo [11]; iv, 5 mg/kg): 30 min
- k el (in vivo [11]; iv, 5 mg/kg): 0.000389 s⁻¹
- AUC(0-t) (in vivo [11]; po, 25 mg/kg): 111 ng·h/mL
- bioavailability (in vivo [11]; po, 25 mg/kg): 0.19%
- fraction unbound at 4 h, 2 μM (in vitro [12]): 0.22
- P.aeruginosa R + CLAV (MIC90) (P. aeruginosa): > 100 µM
- AUC(0-t) (in vivo [13]): 43000 ± 1680 ng·h/mL
- Cmax (in vivo [13]): 29800 ± 7140 ng/mL
- Tmax (in vivo [13]): 60 min
- Papp A→B at 120 min, 3 μM (in vitro [14]): < 0.04 ×10⁻⁶ cm/s
- Papp B→A at 120 min, 3 μM (in vitro [14]): < 0.03 ×10⁻⁶ cm/s
- recovery at 120 min, 3 μM (in vitro [14]; [21]): < 93.1%
- recovery at 120 min, 3 μM (in vitro [14]; [22]): < 99.8%
- remaining at 2 h, 2 μM (in vitro [15]): 79.6%
- Caco-2 Rank Papp (Caco-2 cells): Low
- AUC(0-t) (in vivo [16]): 38100 ng·h/mL
- Cmax (in vivo [16]): 27800 ng/mL
- Tmax (in vivo [16]): 60 min
- fraction unbound at 4 h, 2 μM (in vitro [17]): 0.529
- C.albicans R (MIC90) (C. albicans): > 100 µM
- fraction unbound at 4 h, 2 μM (in vitro [18]): 0.374
- Log10 CFU per mouse (lungs), Mean (wild-type Mtb H37Rv): 8.8 Log10 CFU
- Comments (tolerability) [19]: Recovered at t= 8h
- Tlast [19]: 2.0 to 4.0 h
- fraction unbound at 4 h, 2 μM (in vitro [20]): 0.369
- E.coli R + CLAV (MIC90) (E. coli): 26.9 µM
